According to patent US9873690B2, “3-indol substituted derivatives, pharmaceutical compositions and methods for use” (Pfizer Inc., priority 2015, dated 2018):

Biological target: T1, hTDO2 (Homo sapiens, UniProt P48775)
T1 construct: endogenous in cells; host or cells: A172 human brain glioblastoma cells (ATCC CRL-1620)
Test: Cellular assay for TDO2 activity determination in A172 cells
Format: cell-based
Settings: human glioblastoma A172 cells naturally expressing hTDO2; overnight incubation; kynurenine by absorbance at 480 nm
Method in brief: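 A172 glioblastoma cells endogenously expressing hTDO2, 1.25×10^4 cells/well, incubated overnight at 37 °C, 5% CO2 in IMDM with 2% FBS and ten compound concentrations. Supernatant kynurenine measured after TCA treatment and Ehrlich's reagent (4-dimethylaminobenzaldehyde) by absorbance at 480 nm against a kynurenine standard curve, then curve-fitted.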

T1 sequence (P48775 whole entry): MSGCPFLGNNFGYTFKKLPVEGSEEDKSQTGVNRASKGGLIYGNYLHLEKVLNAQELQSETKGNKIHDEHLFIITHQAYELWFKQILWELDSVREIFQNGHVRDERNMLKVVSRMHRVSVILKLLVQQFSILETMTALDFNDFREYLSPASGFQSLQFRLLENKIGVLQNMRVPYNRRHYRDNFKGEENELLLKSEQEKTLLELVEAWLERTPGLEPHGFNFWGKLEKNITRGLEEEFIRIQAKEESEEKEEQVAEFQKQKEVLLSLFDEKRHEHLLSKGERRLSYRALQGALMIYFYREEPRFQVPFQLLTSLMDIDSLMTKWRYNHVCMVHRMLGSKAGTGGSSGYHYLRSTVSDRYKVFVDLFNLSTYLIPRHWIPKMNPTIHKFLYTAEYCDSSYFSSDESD

## CC1(C)NS(=O)(=O)c2ccc(-c3c[nH]c4cc(F)ccc34)cc21 [Example 5, 5-(6-fluoro-1H-indol-3-yl)-3,3-dimethyl-2,3-dihydrobenzo[d]isothiazole 1,1-dioxide]
  IC50: 96 nM

## NCCN1Cc2cc(-c3c[nH]c4cc(F)ccc34)ccc2S1(=O)=O [Example 31, 2-(2-aminoethyl)-5-(6-fluoro-1H-indol-3-yl)-2,3-dihydrobenzo[d]isothiazole 1,1-dioxide]
  IC50: 221 nM

## CN(C)CCN1Cc2cc(-c3c[nH]c4cc(F)ccc34)ccc2S1(=O)=O [Example 32, 2-(2-(dimethylamino)ethyl)-5-(6-fluoro-1H-indol-3-yl)-2,3-dihydrobenzo[d]isothiazole 1,1-dioxide]
  IC50: 230 nM

## O=S1(=O)c2ccc(-c3c[nH]c4cc(F)ccc34)cc2CN1CCO [Example 33, 5-(6-fluoro-1H-indol-3-yl)-2-(2-hydroxyethyl)-2,3-dihydrobenzo[d]isothiazole 1,1-dioxide]
  IC50: 89 nM

## O=S1(=O)c2ccc(-c3c[nH]c4cc(F)ccc34)cc2CN1C[C@H](O)CO [Example 34, (S)-2-(2,3-dihydroxypropyl)-5-(6-fluoro-1H-indol-3-yl)-2,3-dihydrobenzo[d]isothiazole 1,1-dioxide]
  IC50: 103 nM

## O=S1(=O)c2ccc(-c3c[nH]c4cc(F)ccc34)cc2CN1C[C@@H](O)CO [Example 35, (R)-2-(2,3-dihydroxypropyl)-5-(6-fluoro-1H-indol-3-yl)-2,3-dihydrobenzo[d]isothiazole 1,1-dioxide]
  IC50: 119 nM

## O=S1(=O)c2ccc(-c3c[nH]c4cc(F)ccc34)cc2CN1C1CCNCC1 [Example 36, 5-(6-fluoro-1H-indol-3-yl)-2-(piperidin-4-yl)-2,3-dihydrobenzo[d]isothiazole 1,1-dioxide]
  IC50: 192 nM

## CN1CCC(N2Cc3cc(-c4c[nH]c5cc(F)ccc45)ccc3S2(=O)=O)CC1 [Example 37, 5-(6-fluoro-1H-indol-3-yl)-2-(1-methylpiperidin-4-yl)-2,3-dihydrobenzo[d]isothiazole 1,1-dioxide]
  IC50: 196 nM

## O=S1(=O)c2ccc(-c3c[nH]c4cc(F)ccc34)cc2CN1[C@@H]1CCOC1 [Example 38, (R)-5-(6-fluoro-1H-indol-3-yl)-2-(tetrahydrofuran-3-yl)-2,3-dihydrobenzo[d]isothiazole 1,1-dioxide]
  IC50: 380 nM

## O=S1(=O)c2ccc(-c3c[nH]c4cc(F)ccc34)cc2CN1[C@H]1CCOC1 [Example 39, (S)-5-(6-fluoro-1H-indol-3-yl)-2-(tetrahydrofuran-3-yl)-2,3-dihydrobenzo[d]isothiazole 1,1-dioxide]
  IC50: 342 nM

## O=S1(=O)c2ccc(-c3c[nH]c4cc(F)ccc34)cc2CN1C1CNC1 [Example 40, 2-(azetidin-3-yl)-5-(6-fluoro-1H-indol-3-yl)-2,3-dihydrobenzo[d]isothiazole 1,1-dioxide]
  IC50: 859 nM

## CN1CC(N2Cc3cc(-c4c[nH]c5cc(F)ccc45)ccc3S2(=O)=O)C1 [Example 41, 5-(6-fluoro-1H-indol-3-yl)-2-(1-methylazetidin-3-yl)-2,3-dihydrobenzo[d]isothiazole 1,1-dioxide]
  IC50: 433 nM

## CNC(=O)CCN1Cc2cc(-c3c[nH]c4cc(F)ccc34)ccc2S1(=O)=O [Example 43, 3-(5-(6-fluoro-1H-indol-3-yl)-1,1-dioxidobenzo[d]isothiazol-2(3H)-yl)-N-methylpropanamide]
  IC50: 136 nM

## NC(=O)CCN1Cc2cc(-c3c[nH]c4cc(F)ccc34)ccc2S1(=O)=O [Example 44, 3-(5-(6-fluoro-1H-indol-3-yl)-1,1-dioxidobenzo[d]isothiazol-2(3H)-yl)propanamide]
  IC50: 255 nM

## CC1=NS(=O)(=O)c2ccc(-c3c[nH]c4cc(F)ccc34)cc21 [Example 135, 5-(6-fluoro-1H-indol-3-yl)-3-methylbenzo[d]isothiazole 1,1-dioxide]
  IC50: 183 nM

## O=S1(=O)NC2(CC2)c2cc(-c3c[nH]c4cc(F)ccc34)ccc21 [Example 136, 5-(6-fluoro-1H-indol-3-yl)-2H-spiro[benzo[d]-isothiazole-3,1′-cyclopropane] 1,1-dioxide]
  IC50: 233 nM

## CC1c2cc(-c3c[nH]c4cc(F)ccc34)ccc2S(=O)(=O)N1Cc1ccccn1 (centres unmarked) [Example 149, 5-(6-fluoro-1H-indol-3-yl)-3-methyl-2-(pyridin-2-ylmethyl)-2,3-dihydrobenzo[d]isothiazole 1,1-dioxide]
  IC50: 397 nM
